Key:
male MALB/c mice = experiment: Intraperitoneal administration to mice, observation of appearance; assay type: in vivo; settings: 10 mg/kg intraperitoneally, male MALB/c mice (6 weeks age)
arginine loaded dogs = experiment: Infusion of glicentin and glucagon into the pancreatic artery of arginine loaded dogs; plasma hormones and blood glucose; assay type: in vivo, dog; settings: glicentin 100 pmol or 400 pmol infused into pancreatic artery for 10 minutes
Procedure: Healthy mongrel dogs weighing 13 to 17 kg were subjected to the test after an overnight fast (A. Ohneda et al., Horm. Metab. Res., 9, 447-452 (1977)).
The animals were anesthetized with sodium pentobarbital (Nembutal®) and their abdomens were opened. […] After the operation was completed, saline solution containing 0.5% arginine was infused into the pancreatic artery at a constant rate of 2 ml/min through the cannula using an infusion pump. […] 4 ml portions of blood samples for hormone assay were collected at various intervals into a glass tube containing 1000 KIU aprotinine and 10 mg EDTA.
The plasma insulin was measured in accordance with a known method mentioned in C.
The blood glucose was measured for blood drawn from the femoral artery by the glucose oxidase method using a test kit for the determination of blood glucose (available from Wako Pure Chemical Industries, Japan under the trade name of "Glucose B-Test Wako").

Substance: human glicentin (natural type): peptide of 69 amino acid residues, SEQ ID NO:2, produced by genetic engineering in E. coli
- change in appearance (male MALB/c mice): no change in appearance
- insulin secretion (plasma insulin, IRI) (arginine loaded dogs; anesthetized dogs under 0.5% arginine infusion): stimulates insulin secretion
- glucagon level (IRG(G 21)) (arginine loaded dogs; antiserum G 21): not increased
- blood glucose levels (arginine loaded dogs; blood from femoral artery, glucose oxidase method): no change in blood glucose levels
